Several values for one entry are separate records, joined by “and”; a condition that tells them apart may be missing. Identical values can stand only once.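 These data come from cells grown in 96-well plates and exposed to compound for 48 hours at five concentrations. GI50 = concentration required for 50% inhibition of growth. At the TGI there is no net growth.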 Starred links: 1 amine or outer side, 2 acyl side, 3 side chain; linkers in the order of their positions; H or OH if unused. Positions of bridges follow the written chain, without caps; N, C: chain ends. Non-standard residues stand in square brackets, D forms with d. Residues, ends and D or L forms follow the SMILES beside them. Chains are numbered I, II in the order given. Actinocin(1to9) = Cc1c2oc3c(C)ccc(C(=O)[*:2])c3nc-2c(C(=O)[*:1])c(N)c1=O; NMeV = CN[CH](C(=O)O)C(C)C; Sar = CNCC(=O)O
How the values were obtained:
Assay in all cases: inhibition of tumour cell growth, NCI panel, 48 h
SK-MEL-5 melanoma = tested on: SK-MEL-5 melanoma
SF-295 CNS = tested on: SF-295 CNS
U251 CNS = tested on: U251 CNS
SF-268 CNS = tested on: SF-268 CNS
OVCAR-3 ovarian = tested on: OVCAR-3 ovarian
SK-OV-3 ovarian = tested on: SK-OV-3 ovarian
OVCAR-5 ovarian = tested on: OVCAR-5 ovarian
HT29 colon = tested on: HT29 colon
M14 melanoma = tested on: M14 melanoma
SNB-19 CNS = tested on: SNB-19 CNS

Compound | TGI (SK-MEL-5 melanoma) | TGI (SF-295 CNS) | TGI (U251 CNS) | TGI (SF-268 CNS) | TGI (OVCAR-3 ovarian) | TGI (SK-OV-3 ovarian) | TGI (OVCAR-5 ovarian) | TGI (HT29 colon) | TGI (M14 melanoma) | TGI (SNB-19 CNS) | GI50 (SK-MEL-5 melanoma) | GI50 (SF-295 CNS) | GI50 (U251 CNS) | GI50 (SF-268 CNS) | GI50 (OVCAR-3 ovarian) | GI50 (SK-OV-3 ovarian) | GI50 (OVCAR-5 ovarian) | GI50 (M14 melanoma) | GI50 (SNB-19 CNS) | GI50 (HT29 colon)
c1ccc(-c2nnn3c2NC2=C(CCCC2)C3c2ccccc2)cc1 (configuration not stated) | 30.1 µM | 49.7 µM | 26 µM | 48.9 µM | 37.7 µM | 50.7 µM | 36.9 µM | 28.4 µM | 35.5 µM | > 100 µM |  |  |  |  |  |  |  |  |  | 
CCOC(=O)C(/C(=N/S(=O)(=O)c1cc(C)c(Cl)cc1[S-])[n+]1ccc(N(C)C)cc1)=C(/O)c1ccc([N+](=O)[O-])cc1 | > 100 µM | 54.1 µM | > 100 µM | > 100 µM | > 100 µM | 68.4 µM | > 100 µM | 55.4 µM | 96.6 µM |  |  |  |  |  |  |  |  |  |  | 
N#CC12Cc3cc4c(cc3-c3cccc(c31)CCN2C(=O)c1ccccc1)OCO4 (configuration not stated) | > 100 µM | > 100 µM | > 100 µM | > 100 µM | > 100 µM | > 100 µM | > 100 µM | > 100 µM | > 100 µM | > 100 µM |  |  |  |  |  |  |  |  |  | 
O=C(O)c1ccc(C(=O)c2ccccc2C(=O)O)cc1C(=O)O | > 100 µM | > 100 µM | > 100 µM | > 100 µM | > 100 µM | > 100 µM | > 100 µM | > 100 µM | > 100 µM | > 100 µM |  |  |  |  |  |  |  |  |  | 
OC(c1ccccc1)(c1ccccc1)c1nccc2ccccc12 | 27 µM | 36.2 µM | > 100 µM | > 100 µM | 52.5 µM | 70.2 µM | > 100 µM | > 100 µM | 49.9 µM | > 100 µM |  |  |  |  |  |  |  |  |  | 
Nc1c(C(=O)O)nnc2cc(Cl)c(Cl)cc12 | > 100 µM | > 100 µM | > 100 µM | > 100 µM | > 100 µM | > 100 µM | > 100 µM | > 100 µM | > 100 µM | > 100 µM |  |  |  |  |  |  |  |  |  | 
COc1ccc(C(=O)C2=NON3OC23C(=O)c2ccc(OC)cc2)cc1 (configuration not stated) | 29.3 µM | 34.1 µM | 30.3 µM | 40.2 µM | 23.3 µM | 33.7 µM | 36.7 µM | 52.9 µM | 31 µM | 33.7 µM |  |  |  |  |  |  |  |  |  | 
Cc1ccccc1N=Nc1c(O)c(S(=O)(=O)O)cc2cc(S(=O)(=O)O)ccc12 | > 100 µM | > 100 µM | > 100 µM | > 100 µM | > 100 µM | > 100 µM | > 100 µM | > 100 µM | > 100 µM | > 100 µM |  |  |  |  |  |  |  |  |  | 
CN(C)c1ccc(C=Nc2ccc(Oc3ccc(Cl)cc3)c(Cl)c2)cc1 | 33.4 µM | 50.9 µM | 34.7 µM | 28.1 µM | 32.4 µM | 55.9 µM | > 100 µM | 29.6 µM | 87.1 µM | 41.3 µM |  |  |  |  |  |  |  |  |  | 
COCC1CCCN1c1ccc(C=N/C(C#N)=C(\N)C#N)cc1 (configuration not stated) | > 100 µM | > 100 µM | > 100 µM | > 100 µM | > 100 µM | > 100 µM | > 100 µM |  | > 100 µM | > 100 µM | 98.2 µM | > 100 µM | 17.2 µM | 67.8 µM | 46.1 µM | 27.5 µM | > 100 µM | > 100 µM | 36.7 µM | 
Cc1coc2c1C[C@@]1(C)[C@H](CCC[C@@H]1C)[C@H]2O | 28.9 µM | > 100 µM | > 100 µM | > 100 µM | 57.8 µM | > 100 µM | > 100 µM | > 100 µM | > 100 µM | > 100 µM |  |  |  |  |  |  |  |  |  | 
CC(C)(C)OC(=O)n1c2ccccc2c2c(=O)nc(N3CCCCC3)sc21 | > 100 µM | > 100 µM | > 100 µM | > 100 µM | > 100 µM | > 100 µM | > 100 µM | > 100 µM | > 100 µM | > 100 µM |  |  |  |  |  |  |  |  |  | 
O=c1ccc2nc3cc(Br)ccc3sc-2c1 | > 100 µM | > 100 µM | > 100 µM | > 100 µM | > 100 µM | > 100 µM | > 100 µM | > 100 µM | > 100 µM | > 100 µM |  |  |  |  |  |  |  |  |  | 
CC(=O)OC1CC[C@@]2(C)C(=CC[C@@H]3[C@@H]2CC[C@]2(C)Nc4nn(S(C)(=O)=O)cc4C[C@@H]32)C1 (some centres not stated) | 28.4 µM | > 100 µM | > 100 µM |  | 57.8 µM | > 100 µM | > 100 µM | 25.4 µM | 36.3 µM | > 100 µM |  |  |  |  |  |  |  |  |  | 
COc1nc2[nH]ccc2c(=O)[nH]1 | > 100 µM | > 100 µM | > 100 µM | > 100 µM |  |  | > 100 µM | > 100 µM | > 100 µM | > 100 µM |  |  |  |  |  |  |  |  |  | 
C[N+]1(CCC(=O)c2ccco2)CC2CCC(CC2)C1 (configuration not stated) | > 100 µM | > 100 µM | > 100 µM | > 100 µM | > 100 µM |  | > 100 µM | > 100 µM | > 100 µM | > 100 µM |  |  |  |  |  |  |  |  |  | 
Cn1cnc([N+](=O)[O-])c1Sc1nc(N)nc2c1ncn2C1OC(CO)C(O)C1O (configuration not stated) | 25.7 µM | > 72.6 µM | > 100 µM | > 100 µM | > 43.4 µM | 45.5 µM | > 100 µM | 33.6 µM | > 100 µM | > 100 µM |  |  |  |  |  |  |  |  |  | 
COCCNCc1ccc(-c2cc3nccc(Oc4ccc(NC(=S)NC(=O)Cc5ccc(F)cc5)cc4F)c3s2)nc1 |  |  | 2.94 µM | 4.73 µM | 3.52 µM | 34.4 µM | 13.6 µM | 3.19 µM |  |  |  |  | 1.53 µM | 1.88 µM | 1.93 µM | 18.5 µM | 3.05 µM |  |  | 1.45 µM
CC(C)(C)OC(=O)NC(CCCCNC(=O)OCc1ccccc1)C(=O)NCCNc1ccc(NCCNC(=O)C(CCCCNC(=O)OCc2ccccc2)NC(=O)OC(C)(C)C)c2c1C(=O)c1ccccc1C2=O (configuration not stated) | > 100 µM | > 100 µM | 17.1 µM | > 64.6 µM | > 100 µM | > 90.1 µM | > 100 µM | > 100 µM | > 100 µM | 45.9 µM |  |  |  |  |  |  |  |  |  | 
OCc1cn(C(c2ccccc2)(c2ccccc2)c2ccccc2)cn1 | > 100 µM | 89.7 µM | > 100 µM |  | > 100 µM | > 100 µM | > 100 µM | > 100 µM | > 100 µM | > 100 µM |  |  |  |  |  |  |  |  |  | 
O=c1[nH]c(Nc2ccc(Cl)c(C(F)(F)F)c2)nc2nc[nH]c12 | > 100 µM | > 100 µM | > 100 µM | > 100 µM | > 100 µM | > 100 µM | > 100 µM | > 100 µM | > 100 µM | > 100 µM |  |  |  |  |  |  |  |  |  | 
Clc1ccccc1/C=c1\nc(-c2ccccc2)n2c1nc1ccccc12 | > 100 µM | 31.2 µM | 61.3 µM | 54.6 µM | > 100 µM | 71.7 µM | > 100 µM | > 100 µM | > 100 µM | > 100 µM |  |  |  |  |  |  |  |  |  | 
Cn1c(=O)[nH]c2nncnc2c1=O | 177 µM | 325 µM | 312 µM | > 625 µM | 298 µM | 498 µM | > 625 µM | > 561 µM |  | 419 µM |  |  |  |  |  |  |  |  |  | 
Nc1ncnc2c1sc1nc3ccccc3n12 | > 100 µM | > 100 µM | > 100 µM | > 100 µM | > 100 µM | > 100 µM | > 100 µM | > 100 µM | > 100 µM | > 100 µM |  |  |  |  |  |  |  |  |  | 
CCC(C)C1NC(=O)C(NC(=O)c2c3nc4c(C(=O)NC5C(=O)NC(C(C)CC)C(=O)N6CCCC6C(=O)N(C)CC(=O)N(C)C(C(C)C)C(=O)OC5C)ccc(C)c4oc-3c(C)c(=O)c2N)C(C)OC(=O)C(C(C)C)N(C)C(=O)CN(C)C(=O)C2CCCN2C1=O (configuration not stated) (I: TIP[Sar][NMeV] / II: TIP[Sar][NMeV]; ester I:1-I:C, II:1-II:C; linker I:N-II:N via Actinocin(1to9); configuration not given here) | 0.018 µM |  | 10.9 µM | 0.0586 µM | 0.0389 µM | 0.578 µM | 0.0273 µM and 0.0172 µM | 11.5 µM | 0.0272 µM | 0.0111 µM |  |  |  |  |  |  |  |  |  | 
